Measured values published in patent publication EP4818158A1, “BIARYL COMPOUND” (Kissei Pharmaceutical Co., Ltd., priority 2023, dated 2025).

Biological target: T1, human TSHR (Homo sapiens, UniProt P16473)
T1 construct: expressed in transfected cells
Test: Antagonist activity using TSH-induced cAMP generation in human TSHR-stably expressing CHO cells
Type: cell-based
Settings: human TSH 50 ng/mL
Method: Measurement of antagonist activity using TSH-induced cAMP generation in human TSHR-stably expressing CHO cells as an indicator
The gene sequence (reference number: NM_000369.2) of a human TSHR was inserted into multiple cloning sites of pcDNA3.1 (+). Prepared plasmid vectors were introduced into CHO cells using a lipofection method, and human TSHR-stably expressing CHO cells were established. Obtained cells were seeded in a 96-well poly-D-lysine-coated plate at 5 × 10^4 cells/well and cultured in an F12 culture medium containing 10%FBS, 400 µg/mL of G418, 50 U/mL of penicillin, and 50 µg/mL of streptomycin under conditions of 37°C and 5% CO2 for one day. After the culture medium was removed, the cells were washed twice with 100 µL of an assay buffer solution (Hanks' Balanced Salt Solution containing 20 mM HEPES and 1 mM IBMX) per well. 30 µL of a test compound-containing assay buffer solution was added to the well and incubated at room temperature for 15 minutes. Next, 30 µL of an assay buffer solution containing human TSH (final concentration: 50 ng/mL, R&D Systems, Inc.) was added thereto and incubated at 37°C for one hour. A supernatant was removed, a Lysis and Detection Buffer 2(Cisbio) was added thereto, and the mixture was incubated at room temperature for one hour to prepare a cell lysate. According to the instruction manual of a cAMP Gs HiRange kit (Cisbio), the cell lysate, d2-labeled cAMP, and anti-cAMP Europium Cryptate labeled antibodies (Cisbio) were reacted together in a 384-well white microplate. Next, fluorescence intensity ratios (measurement wavelengths: 665 nm/620 nm) were measured using a multi-plate reader (PHERAstar FSX, BMG LABTECH, Japan). The fluorescence intensity ratio of each sample was converted to a cAMP content using a standard curve. The cAMP content was converted as a percentage of the control value to calculate a cAMP generation rate. The cAMP generation rates were plotted against the test compound concentrations using Prism (Graph Pad Software Inc.) to calculate IC50 values. The IC50's of the individual test compounds are shown in the above tables. In the tables, IC50 < 0.3 µM was denoted as A, and 0.3 µM ≤ IC50 < 30 µM was denoted as B. Cases where the IC50 values were not calculated for test compounds from which activity was recognized are denoted as C.

T1 sequence (P16473 21-764): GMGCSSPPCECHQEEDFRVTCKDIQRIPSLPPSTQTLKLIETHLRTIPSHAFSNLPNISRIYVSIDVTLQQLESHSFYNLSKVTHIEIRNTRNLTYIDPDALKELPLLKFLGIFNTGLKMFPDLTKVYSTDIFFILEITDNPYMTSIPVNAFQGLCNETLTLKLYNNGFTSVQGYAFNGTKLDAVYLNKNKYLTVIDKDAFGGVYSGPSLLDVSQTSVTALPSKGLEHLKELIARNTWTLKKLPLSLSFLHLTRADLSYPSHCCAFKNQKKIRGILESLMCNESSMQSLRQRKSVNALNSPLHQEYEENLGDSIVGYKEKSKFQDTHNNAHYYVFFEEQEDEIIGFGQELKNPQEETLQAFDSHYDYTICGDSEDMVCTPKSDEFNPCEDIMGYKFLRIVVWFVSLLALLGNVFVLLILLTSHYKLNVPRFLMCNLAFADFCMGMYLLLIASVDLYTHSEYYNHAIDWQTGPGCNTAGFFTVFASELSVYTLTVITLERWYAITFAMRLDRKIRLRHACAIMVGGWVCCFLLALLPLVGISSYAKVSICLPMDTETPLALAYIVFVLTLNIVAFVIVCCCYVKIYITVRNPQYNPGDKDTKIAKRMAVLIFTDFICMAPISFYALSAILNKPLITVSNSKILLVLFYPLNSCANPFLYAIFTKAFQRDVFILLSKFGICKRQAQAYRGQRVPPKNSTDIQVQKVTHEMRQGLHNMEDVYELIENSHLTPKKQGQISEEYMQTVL

| Structure (SMILES) | IC50 |
| --- | --- |
| CC(C)(C)OC(=O)Nc1ccc(-c2cccnc2CNC(N)=O)c(Cc2ccccc2C#N)c1F [Example A-2, tert-Butyl (3-(2-cyanobenzyl)-2-fluoro-4-(2-(ureidomethyl)pyridin-3-yl)phenyl)carbamate] | 300 to 30000 nM |
| CC(C)(C)OC(=O)Nc1ccc(-c2cccnc2CNC(N)=O)c(Cc2c(F)cccc2C#N)c1F [Example A-3, tert-Butyl (3-(2-cyano-6-fluorobenzyl)-2-fluoro-4-(2-(ureidomethyl)pyridin-3-yl)phenyl)carbamate] | 300 to 30000 nM |
| Cc1ccnc(CNC(N)=O)c1-c1ccc(NC(=O)OC(C)(C)C)c(F)c1Cc1ccccc1 [Example A-9, tert-Butyl (3-benzyl-2-fluoro-4-(4-methyl-2-(ureidomethyl)pyridin-3-yl)phenyl)carbamate] | 300 to 30000 nM |
| Cc1cnc(CNC(N)=O)c(-c2ccc(NC(=O)OC(C)(C)C)c(F)c2Cc2ccccc2F)c1 [Example A-10, tert-Butyl (2-fluoro-3-(2-fluorobenzyl)-4-(5-methyl-2-(ureidomethyl)pyridin-3-yl)phenyl)carbamate] | 300 to 30000 nM |
| CC(c1ccccc1)c1cc(NC(=O)OC(C)(C)C)ccc1-c1cccnc1/C=C/C(N)=O (centres unmarked) [Example A-11, tert-Butyl (E)-(4-(2-(3-amino-3-oxopropan-1-en-1-yl)pyridin-3-yl)-3-(1-phenylethyl)phenyl)carbamate] | 300 to 30000 nM |
| CC(c1ccccc1)c1cc(NC(=O)OC(C)(C)C)ccc1-c1cccnc1CCC(N)=O (centres unmarked) [Example A-12, tert-Butyl (4-(2-(3-amino-3-oxopropyl)pyridine-3-yl)-3-(1-phenylethyl)phenyl)carbamate] | 300 to 30000 nM |
| CC(C)(C)OC(=O)Nc1ccc(-c2cccnc2CNC(N)=O)c(Cc2cccc(F)c2)c1F [Example A-15] | 300 to 30000 nM |
| COc1ccccc1Cc1c(-c2cccnc2CNC(N)=O)ccc(NC(=O)OC(C)(C)C)c1F [Example A-17, tert-Butyl (2-fluoro-3-(2-methoxybenzyl)-4-(2-(ureidomethyl)pyridin-3-yl)phenyl)carbamate] | 300 to 30000 nM |
| CC(C)(C)OC(=O)Nc1ccc(-c2cccnc2CNC(N)=O)c(Cc2ccccc2OCc2ccccc2)c1F [Example A-18, tert-Butyl (3-(2-(benzyloxy)benzyl)-2-fluoro-4-(2-(ureidomethyl)pyridin-3-yl)phenyl)carbamate] | 300 to 30000 nM |
| CC(C)(CO)OC(=O)Nc1ccc(-c2cccnc2CNC(N)=O)c(Cc2ccccc2F)c1F [Example A-21, 1-Hydroxy-2-methylpropan-2-yl (2-fluoro-3-(2-fluorobenzyl)-4-(2-(ureidomethyl)pyridin-3-yl)phenyl)carbamate] | 300 to 30000 nM |
| COC[C@H](C)OC(=O)Nc1ccc(-c2cccnc2CNC(N)=O)c(Cc2ccccc2F)c1F [Example A-25, (S)-1-Methoxypropan-2-yl (2-fluoro-3-(2-fluorobenzyl)-4-(2-(ureidomethyl)pyridin-3-yl)phenyl)carbamate] | 300 to 30000 nM |
| NC(=O)NCc1ncccc1-c1ccc(NC(=O)OC2CC2)c(F)c1Cc1ccccc1F [Example A-26, Cyclopropyl (2-fluoro-3-(2-fluorobenzyl)-4-(2-(ureidomethyl)pyridin-3-yl)phenyl)carbamate] | 300 to 30000 nM |
| NC(=O)NCc1ncccc1-c1ccc(NC(=O)OC2CCOC2)c(F)c1Cc1ccccc1F (centres unmarked) [Example A-28] | 300 to 30000 nM |
| NC(=O)NCc1ncccc1-c1ccc(NC(=O)OC2CN3CCC2CC3)c(F)c1Cc1ccccc1F (centres unmarked) [Example A-29, (2-Fluoro-3-(2-fluorobenzyl)-4-(2-(ureidomethyl)pyridine-3-yl)phenyl)carbamate quinuclidine-3-yl] | 300 to 30000 nM |
| CN(C)CCCOC(=O)Nc1ccc(-c2cccnc2CNC(N)=O)c(Cc2ccccc2F)c1F [Example A-30, 3-(Dimethylamino)propyl (2-fluoro-3-(2-fluorobenzyl)-4-(2-(ureidomethyl)pyridin-3-yl)phenyl)carbamate] | 300 to 30000 nM |
| NC(=O)NCc1ncccc1-c1ccc(NC(=O)OCC2CC2)c(F)c1Cc1ccccc1F [Example A-31, Cyclopropylmethyl (2-fluoro-3-(2-fluorobenzyl)-4-(2-(ureidomethyl)pyridin-3-yl)phenyl)carbamate] | < 300 nM |
| NC(=O)NCc1ncccc1-c1ccc(NC(=O)OCC2CC2(F)F)c(F)c1Cc1ccccc1F (centres unmarked) [Example A-33] | < 300 nM |
| NC(=O)NCc1ncccc1-c1ccc(NC(=O)OCC2(C(F)F)CC2)c(F)c1Cc1ccccc1F [Example A-34] | < 300 nM |
| NC(=O)NCc1ncccc1-c1ccc(NC(=O)OCC2CCOC2)c(F)c1Cc1ccccc1F (centres unmarked) [Example A-35] | < 300 nM |
| NC(=O)NCc1ncccc1-c1ccc(NC(=O)OCc2ccccc2F)c(F)c1Cc1ccccc1F [Example A-36] | < 300 nM |
| CC(C)(OC(=O)Nc1ccc(-c2cccnc2CNC(N)=O)c(Cc2ccccc2C#N)c1F)C(F)F [Example A-37, 1,1-Difluoro-2-methylpropan-2-yl (3-(2-cyanobenzyl)-2-fluoro-4-(2-(ureidomethyl)pyridin-3-yl)phenyl)carbamate] | 300 to 30000 nM |
| N#Cc1ccccc1Cc1c(-c2cccnc2CNC(N)=O)ccc(NC(=O)OC2CC3CCC2CC3)c1F (centres unmarked) [Example A-38, Bicyclo[2.2.2]octan-2-yl (3-(2-cyanobenzyl)-2-fluoro-4-(2-(ureidomethyl)pyridin-3-yl)phenyl)carbamate] | 300 to 30000 nM |

Results, then the compound that gave them:

| IC50 | Structure (SMILES) |
| --- | --- |
| < 300 nM | NC(=O)NCc1ncccc1-c1ccc(NC(=O)OC[C@H]2C[C@@H]2F)c(F)c1Cc1ccccc1F (relative stereo) [Example A-32] |
| < 300 nM | CC(C)(C)OC(=O)Nc1ccc(-c2cccnc2CNC(N)=O)c(Cc2ccccc2F)c1F [Example A-1, tert-Butyl (2-fluoro-3-(2-fluorobenzyl)-4-(2-(ureidomethyl)pyridin-3-yl)phenyl)carbamate] |
| < 300 nM | CC1(OC(=O)Nc2ccc(-c3cccnc3CNC(N)=O)c(Cc3ccccc3F)c2F)CC1 [Example A-4, 1-Methylcyclopropyl (2-fluoro-3-(2-fluorobenzyl)-4-(2-(ureidomethyl)pyridin-3-yl)phenyl)carbamate] |
| < 300 nM | NC(=O)NCc1ncccc1-c1ccc(NC(=O)O[C@H]2C[C@H](F)C2)c(F)c1Cc1ccccc1F [Example A-5, trans-3-Fluorocyclobutyl (2-fluoro-3-(2-fluorobenzyl)-4-(2-(ureidomethyl)pyridin-3-yl)phenyl)carbamate] |
| < 300 nM | NC(=O)NCc1ncccc1-c1ccc(NC(=O)OC2CC(F)(F)C2)c(F)c1Cc1ccccc1F [Example A-6] |
| < 300 nM | CC(C)(C#N)COC(=O)Nc1ccc(-c2cccnc2CNC(N)=O)c(Cc2ccccc2F)c1F [Example A-7] |
| < 300 nM | N#CC1(COC(=O)Nc2ccc(-c3cccnc3CNC(N)=O)c(Cc3ccccc3F)c2F)CC1 [Example A-8] |
| < 300 nM | Cc1c(NC(=O)OC(C)(C)C)ccc(-c2cccnc2CNC(N)=O)c1Cc1ccccc1F [Example A-13, tert-Butyl (3-(2-fluorobenzyl)-2-methyl-4-(2-(ureidomethyl)pyridin-3-yl)phenyl)carbamate] |
| < 300 nM | CC(C)(C)OC(=O)Nc1c(F)cc(-c2cccnc2CNC(N)=O)c(Cc2ccccc2F)c1F [Example A-14, tert-Butyl (2,6-difluoro-3-(2-fluorobenzyl)-4-(2-(ureidomethyl)pyridin-3-yl)phenyl)carbamate] |
| < 300 nM | CC(C)(C)OC(=O)Nc1ccc(-c2cccnc2CNC(N)=O)c(Cc2ccc(F)cc2)c1F [Example A-16] |
| < 300 nM | CC(C)(C)OC(=O)Nc1ccc(-c2cccnc2CNC(N)=O)c(Cc2ccccc2O)c1F [Example A-19, tert-Butyl (2-fluoro-3-(2-hydroxybenzyl)-4-(2-(ureidomethyl)pyridin-3-yl)phenyl)carbamate] |
| < 300 nM | CC(C)(COCc1ccccc1)OC(=O)Nc1ccc(-c2cccnc2CNC(N)=O)c(Cc2ccccc2F)c1F [Example A-20, 1-(Benzyloxy)-2-methylpropan-2-yl (2-fluoro-3-(2-fluorobenzyl)-4-(2-(ureidomethyl)pyridin-3-yl)phenyl)carbamate] |
| < 300 nM | CC(C)OC(=O)Nc1ccc(-c2cccnc2CNC(N)=O)c(Cc2ccccc2F)c1F [Example A-22] |
| < 300 nM | C[C@H](OC(=O)Nc1ccc(-c2cccnc2CNC(N)=O)c(Cc2ccccc2F)c1F)C(F)(F)F [Example A-23] |
| < 300 nM | C[C@@H](OC(=O)Nc1ccc(-c2cccnc2CNC(N)=O)c(Cc2ccccc2F)c1F)C(F)(F)F [Example A-24] |
| < 300 nM | NC(=O)NCc1ncccc1-c1ccc(NC(=O)OC2CCC(F)(F)C2)c(F)c1Cc1ccccc1F (centres unmarked) [Example A-27, 3,3-Difluorocyclopentyl (2-fluoro-3-(2-fluorobenzyl)-4-(2-(ureidomethyl)pyridin-3-yl)phenyl)carbamate] |
